What all share (assay): NCI-60 cell line screen, 48 h
Test [1] concerns A549 NSCLC.
Test [2] has as its system HS 578T breast.
Test [3] concerns LOX IMVI melanoma.
The subject of test [4] is MALME-3M melanoma.
In test [5] the test system is MDA-N.
The subject of test [6] is OVCAR-3 ovarian.
The test system of test [7] is OVCAR-5 ovarian.
Test [8] concerns SK-MEL-2 melanoma.
The subject of test [9] is SW-620 colon.
Test [10] deals with TK-10 renal.

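Interpolation was linear, between the two tested concentrations surrounding the appropriate level; five concentrations were tested over 48 hours in 96-well plates. At the TGI there is no net growth.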

For `NC(=O)c1ncn2c(=O)n(CCl)nnc12`, the TGI in [1], in test [2], in test [3], in [4], in test [5] and in [6] was > 100 µM in each case. In addition, the TGI in test [7], in [8], in test [9] and in [10] was > 100 µM each time.

With `S=c1nc2sc3c(c2c(Nc2ccc(Br)cc2)[nH]1)CCN(N1CCc2c(sc4nc(=S)[nH]c(Nc5ccc(Br)cc5)c24)C1)C3`, the TGI in test [1] is > 50 µM; in test [2] it was > 50 µM; in [3] it was 24.9 µM; in test [4], > 50 µM; in [5], 44.2 µM; in [6], > 50 µM. For the same compound, the TGI in [7], in [8], in test [9] and in [10] was > 50 µM each time.

Regarding `CSC1(SC)N2Cc3ccccc3N=C2C1(c1ccccc1)c1ccccc1`, the TGI was > 100 µM in test [1]; > 82.5 µM in test [2]; 44.4 µM in test [3]; 27.6 µM in test [4]; > 96.7 µM in test [5]; 28.3 µM in test [6]. Besides, the TGI in test [7] was > 77.9 µM; in test [8] it was > 58.1 µM; in test [9], > 63.7 µM; in test [10], > 100 µM.

These data come from PubChem BioAssay (NCI).
